{"source": "paper PMC9459403", "about": "“New inhibitors of cathepsin V impair tumor cell proliferation and elastin degradation and increase immune cell cytotoxicity” (Computational and Structural Biotechnology Journal, 2022)", "key": {"[1]": {"system": "cystatin F in U-937 cells", "test": "Western blot of cystatin F dimer-to-monomer ratio", "format": "cell-based, human", "details": "U-937 cell lysates, 6 h treatment, 10 and 20 μM, vs control", "procedure": "Cells were treated with E-64d or compound 7 (both at 10 µM or 20 µM) for 6 h. After treatment, whole-cell lysates were prepared in RIPA buffer supplemented with cOmplete™ Protease Inhibitor Cocktail (Roche, Basel, Switzerland) and centrifuged at 16 000 × g for 20 min at 4 °C. Total protein concentration was determined using the DC assay (Biorad, Hercules, CA, USA). Proteins were separated by non-reducing SDS-PAGE and transferred to a nitrocellulose membrane using the TransBlot Turbo System (Biorad). After blocking, the membranes were incubated with primary antibodies overnight at 4 °C and with secondary antibodies for 1 h at room temperature. Bands were visualized using Clarity Max Western ECL substrate (Biorad), and protein loading was checked using Stain Free technology (Biorad). Images were acquired using the ChemiDoc ML Imaging System (Biorad), and quantification analysis was performed using Image Lab software (Biorad).\nThe following primary antibodies were used: rabbit anti-cystatin F (1:375, HPA040442, Sigma), goat anti-cathepsin V (1:200, AF 1080, R&D, USA), and mouse anti-GAPDH (1:3000, 10494-I-AP, Proteintech, USA). […]"}, "Kinetic solubility": {"test": "Kinetic solubility", "format": "physicochemical", "details": "PBS pH 7.4 with 5 % DMSO, pH 7.4, aqueous with cosolvent or surfactant or cyclodextrin, kinetic from dmso stock; PBS with 5 % DMSO", "procedure": "The solubility of compound 7 was determined in buffer (PBS pH 7.4) containing 5 % DMSO. Serial dilutions of 7 were prepared in DMSO at concentrations of 4 mM, 2 mM, 1.5 mM, 1 mM, and 0.2 mM. The assay was performed in 96-well microplates in duplicate. Briefly, to 190 µL of buffer, 10 µL of the compound stock solution in DMSO was added. The plate was shaken and the absorbance at 620 nm was measured using a plate reader (Synergy H4, BioTek Instruments, Inc., Santa Clara, CA, USA) in area scan mode (5 × 5 measurements per well). The mean absorbance was then compared relative to the blank to determine the solubility of the compound at each concentration tested."}, "[2]": {"system": "NK-92 effector cells on target K-562 cells", "test": "Calcein AM release assay (cytotoxicity)", "format": "cell-based, human", "details": "effector cells treated 10 µM, 6 h", "procedure": "(§1) Effector cells (NK-92 or TALL-104; 1 × 10^6/ml) were treated with E-64d (10 µM) or compound 7 (10 µM) for 6 h. NK-92 cells were pre-treated with 1000 IU IL2/mL overnight prior to the addition of inhibitors. Effector cells were added to a 96-well U-bottom plate to achieve a selected effector-to-target ratio (E:T). Target K-562 cells were labelled with 15 µM Calcein-AM (Sigma) in serum-free RPMI 1640 medium for 30 min at 37 °C. Cells were then washed twice and resuspended in complete RPMI 1640 medium. Target cells (n = 5000) were added to the effectors. The plate was centrifuged at 200 × g for 1 min and incubated at 37 °C and 5 % CO2 for 4 h. After incubation, the plate was centrifuged at 700 × g for 5 min. The supernatant (50 µL) was transferred to a new microtiter plate to measure the fluorescence of the released Calcein-AM with a Tecan M1000 microtiter plate reader using 496 nm excitation and 516 nm emission filters. The percentage of cytotoxicity was calculated as follows: 100(test release-spontaneous release)/(total release-spontaneous release). Spontaneous release was measured in wells containing only target cells. For total release, 2 % Triton X-100 was added to the wells to achieve lysis of target cells. Lytic units (LU) were calculated using the inverse of the number of effector cells needed to lyse 30 % of the target cells multiplied by 100."}, "[3]": {"system": "TALL-104 effector cells on target K-562 cells", "test": "Calcein AM release assay (cytotoxicity)", "format": "cell-based, human", "details": "effector cells treated 10 µM, 6 h", "procedure": "as §1"}, "[4]": {"system": "U-937-derived macrophages", "test": "Intracellular elastin-FITC degradation", "format": "cell-based, human", "procedure": "To evaluate the effect of the inhibitors on the elastolytic activity of cathepsin V, we assessed the intracellular degradation of elastin-FITC, a soluble bovine neck ligament elastin that is heavily labeled with FITC such that the fluorescence of the conjugate is quenched. Upon proteolysis, fluorescence is recovered and can be detected. U-937 cells, differentiated into macrophage-like cells, were seeded (at 1 × 10^5 cells/well) into 24-well plates with 500 μL of medium supplemented with 50 nM PMA. Inhibitors or DMSO (0.1 %) and elastin-FITC (10 μg/mL; AnaSpec, Fermont, CA, USA) were added to the medium and incubated for 24 h at 37 °C. Cells were detached and washed with PBS, and propidium iodide (BD Bioscience) was added to exclude dead cells. Therefore, green fluorescence arising from elastin-FITC degradation was monitored only for viable cells. The measurement was performed using a FACSCalibur instrument (BD Biosciences)."}, "Cathepsin V": {"target": "T1, Cathepsin V (Homo sapiens, UniProt O60911)", "T1 construct": "made in house; host or cells: Pichia pastoris", "T1 sequence (O60911 114-334)": "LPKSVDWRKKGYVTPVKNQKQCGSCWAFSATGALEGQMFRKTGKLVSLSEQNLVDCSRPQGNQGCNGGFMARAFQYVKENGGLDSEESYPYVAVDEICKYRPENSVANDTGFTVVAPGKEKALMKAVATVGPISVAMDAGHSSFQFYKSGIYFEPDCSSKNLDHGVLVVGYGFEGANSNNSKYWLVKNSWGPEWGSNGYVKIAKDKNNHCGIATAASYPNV", "test": "Determination of Ki values and mode of inhibition", "format": "biochemical", "procedure": "(§2) Human recombinant cathepsin V was expressed in Pichia Pastoris, and human recombinant cathepsin L was expressed in Escherichia coli, as reported, [51]. To determine the activities of cathepsins V and L, 100 mM acetate buffer (pH 5.5), containing 0.1 % PEG 8000 (Sigma-Aldrich, St. Louis, MO, USA), 5 mM cysteine, and 1.5 mM EDTA was used. Prior to the assay, the enzyme was activated in the assay buffer for 5 min at 37 °C.\n(§3) Inhibition constants were calculated from reaction velocities measured at three substrate concentrations (0.5, 1, and 4 μM) in the presence of inhibitors at seven concentrations (0, 20, 40, 60, 80, 100, and 200 µM). The reaction was initiated by adding 90 μL of enzyme at final concentrations of 2.5 ng/mL and 0.02 nM for cathepsins V and L, respectively, to the wells of a black microtiter plate containing 5 μL of substrate and 5 μL of inhibitor. To evaluate cathepsin V and L activity, the substrate Z-Phe-Arg-AMC was used. The formation of the fluorescent degradation products was monitored as described above. All assay mixtures contained 5 % (v/v) DMSO. All measurements were performed in duplicates and repeated at least twice. The SigmaPlot® 12, Enzyme Kinetics Module™ 1.3 was used to calculate Ki values."}, "[5]": {"target": "T2, human recombinant cathepsin L (Homo sapiens, UniProt P07711)", "T2 construct": "made in house; host or cells: Escherichia coli", "T2 sequence (P07711 114-333)": "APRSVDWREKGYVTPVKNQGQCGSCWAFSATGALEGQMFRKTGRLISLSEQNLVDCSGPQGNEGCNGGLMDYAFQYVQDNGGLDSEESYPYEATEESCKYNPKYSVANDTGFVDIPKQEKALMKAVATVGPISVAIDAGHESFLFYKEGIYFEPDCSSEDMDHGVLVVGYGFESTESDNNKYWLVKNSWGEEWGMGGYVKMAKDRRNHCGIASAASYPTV", "test": "Determination of Ki values and mode of inhibition", "format": "biochemical", "details": "mean ± SD (n = 2)", "procedure": "as §2, §3"}}}
{"smiles": "O=C(NCc1cccc2ccccc12)NCC1CCN(C(=O)Oc2ccccc2)CC1", "note": "[Compound 7, Phenyl 4-((3-(naphthalen-1-ylmethyl)ureido)methyl)piperidine-1-carboxylate]", "values": [{"measurement": "cystatin F dimer-to-monomer ratio", "setting": "[1]", "result": "even further increased"}, {"measurement": "solubility kinetic", "setting": "Kinetic solubility", "result": "75 to 100", "unit": "µM"}, {"measurement": "cytotoxicity of NK-92 cells (target cell killing)", "setting": "[2]", "result": "significantly increased"}, {"measurement": "cytotoxicity of TALL-104 cells (target cell killing)", "setting": "[3]", "result": "significantly increased"}, {"measurement": "decrease of elastin-FITC degradation", "setting": "[4]; 10 μM, 24 h, vs DMSO", "result": "9.5 ± 1.6", "unit": "%"}, {"measurement": "elastin-FITC degradation, compound 7 added to CLIK-148", "setting": "[4]; compound 7 10 μM + CLIK-148, vs control cells and CLIK-148 alone", "result": "significantly decreased"}, {"measurement": "mode of inhibition of cathepsin V", "setting": "Cathepsin V", "result": "competitive"}, {"measurement": "Ki", "setting": "Cathepsin V; mean ± SD (n = 2)", "result": "88.7 ± 10.2", "unit": "µM"}, {"measurement": "Cathepsin L Ki (µM)", "setting": "[5]", "result": "no inhibition and did not inhibit cathepsin L and n.i^f and n.i"}, {"measurement": "Cathepsin L Ki′ (µM)", "setting": "[5]", "result": "n.i^f"}]}
